Measurements as given in patent publication US4613618A, “Method for treating disorders of lipid metabolism using benzene sulfonamides” (Choay S.A., priority 1981, dated 1986).
Like-named read-outs stand apart in the source and are kept apart here.

Columns and labels:
atherosclerosis lesions = assay: Atherosclerosis inducing diet: macroscopic exams (affected animals); format: in vivo, Wistar female rats; conditions: for Score with respect to the reference clofibrate (animals afflicted with lesions): clofibrate counted as 1; for AFFECTED ANIMALS %: macroscopic exams, TEM-diet 100
Protocol: (§1) In a second experimental series, tha activity of certain products according to the invention were tested on animals which had received an atherosclerosis inducing diet for a long period.
(§2) The test was carried out on Wistar female rats, of weight about 160-180 g.
(§3) The animals received food coming from the National Nutrition plant of Villemoisson-sur-Orge, France, and denoted by the reference UAR AO3, enriched in cholesterol (0.5%) and in cholic acid (0.5%).
(§4) After 15 days of the atherosclerosis inducing diet and whilst maintaining the animals on an atherosclerosis inducing diet, they were given orally for 4 days 250.000 iu/kg of vitamine D2 marketed under the name Sterogyl 25H, in solution in olive oil.
(§5) Then the products under study were administered for 4 weeks, from the end of the administration of the lesion-inducing agent.
(§6) At the end of the study, all the animals still alive were sacrificed, and various organs were removed, particularly the aorta, for histological study of the latter. Two criteria were examined: the number of atherosclerosis areas and the severity of the lesions.
(§7) Then the pecentage reduction with respect to the diet controls and the score were calculated, that is to say the ratio of the intensity of the activity of the product tested with respect to that of the activity of clofibrate, reckoned as 1.
Table X gives the results of macroscopic examinations:
(a) in % decrease in animals afflicted with lesions;
(b) as score with respect to the reference clofibrate, of which the score was counted as 1.

[1] = tested on: atherosclerosis inducing diet (cholesterol, cholic acid, vitamine D2); assay: Atherosclerosis inducing diet: biochemical exams; format: in vivo, Wistar female rats; set-up: CHOLESTEROL T, % reduction with respect to the control diet / CHOLESTEROL HDL, % with respect to the control diet / CHOLESTEROL LDL, % reduction with respect to the control diet / TRIGLYCERIDES, % reduction with respect to the control diet: concentration or dose not given beside the values; conditions: for TRIGLYCERIDES, % reduction with respect to the control diet / CHOLESTEROL HDL, % with respect to the control diet / CHOLESTEROL LDL, % reduction with respect to the control diet / CHOLESTEROL T, % reduction with respect to the control diet: 4 weeks administration; for CHOLESTEROL HDL, Score with respect to clofibrate / CHOLESTEROL LDL, Score with respect to clofibrate / CHOLESTEROL T, Score with respect to clofibrate / TRIGLYCERIDES, Score with respect to clofibrate: clofibrate counted as 1; for CHOLESTEROL T, % reduction with respect to the control diet: total cholesterol
Protocol: as §1, §2, §3, §4, §5
At the end of the study, biochemical examinations were carried out on all the animals [total cholesterol, high density lipoprotein (HDL) and cholesterol low density lipoprotein (LDL), and triglycerides].
as §7
Table IX gives the detailed results of the biochemical examination:
(a) in % reduction with respect to the control die;
(b) as score, with respect to the reference product, clofibrate, the latter being counted as 1.

aorta = assay: Atherosclerosis inducing diet: microscopic observations (aorta, histology); format: in vivo, Wistar female rats; set-up: HISTOLOGICAL QUOTATION, percentage reduction with respect to the diet controls / NUMBER OF ATHEROSCLEROTIC AREAS, percentage reduction with respect to the diet controls: concentration or dose not given beside the values; conditions: for NUMBER OF ATHEROSCLEROTIC AREAS: TEM-diet 160; for HISTOLOGICAL QUOTATION, score with respect to clofibrate / NUMBER OF ATHEROSCLEROTIC AREAS, score with respect to clofibrate: clofibrate counted as 1; for HISTOLOGICAL QUOTATION, percentage reduction with respect to the diet controls / HISTOLOGICAL QUOTATION: severity of the lesions; for HISTOLOGICAL QUOTATION: TEM-diet 132
Protocol: as §1, §2, §3, §4, §5, §6
Calculation of the figures was carried out in the following manner:
as regards the severity of the lesions, a quotation ranging from 0 for absence of a lesion to 5+ for the severest lesions was made, and this for each type of alteration concerned (increase of interlamellar spaces, interruption of elastic laminae, thickening of the elastic laminae, calcium deposition, mucopolysaccharide deposition); then all of the results per batch of animals were added;
as regards the number of atherosclerosis areas, by counting the latter and adding all the figures obtained per batch of animals.
as §7
Table XI gives the microscopic results with histological quotation as regards the severity of the lesions, and the number of atherosclerotic areas.

[2] = Toxicity, general statements; conditions: Compound No. 1 038: rats and mice, oral route; medicaments: general
[3] = Subacute toxicity of compound No. 1 038; format: in vivo; conditions: about one month; 150,500 and 1 000 mg/kg
mice = assay: Toxicity of Compound No. 1 038, oral route, mice; format: in vivo
Text: (§8) For Compound No. 1 038, the study of the toxicity has been carried out on rats and on mice to which the product has been administered by the oral route.
(§9) The results (expressed in g/kg) relative to LD50, LD0, and LD100 are gathered in the following table.

[4] = Toxicity of Compound No. 1 038, oral route, mice; format: in vivo; conditions: mouse, in vivo, po
Text: as §8, §9

rats = assay: Toxicity of Compound No. 1 038, oral route, rats; format: in vivo
Text: as §8, §9

[5] = Toxicity of Compound No. 1 038, oral route, rats; format: in vivo; conditions: rat, in vivo, po
Text: as §8, §9

[6] = Acute toxicity, intraperitoneal, mice; conditions: mouse, in vivo, ip, intraperitoneally, read-out: lethal dose 50
Protocol: The acute toxicity is expressed by the lethal dose 50, that is to say the dose resulting in the death of 50% of the animals.
This study was carried out on mice, to which the products under test were administered intraperitoneally.
It was established as follows, for the following substances: […]

[7] = tested on: hyperlipidemia caused by the administration of TRITON; assay: Triton test: lipid regulating activity in hyperlipidemia caused by TRITON W. R.; format: in vivo, WISTAR male rats; conditions: Rattus norvegicus, po, 250 mg/kg orally, 6 hours and/or 24 hours
Protocol: In a first series of experiments, products were tested on a hyperlipidemia caused by the administration of TRITON according to the following procedure.
The tests were carried out on groups of five WISTAR male rats whose weight varied from 150 to 175 g.
The tested products were administered, orally in the form of a 3% aqueous solution of tragacanth gum in the ratio of 1 ml per 100 g of body weight, in an amount corresponding to 250 mg/kg.
To carry out these tests, a hyperlipidemia was caused in the animals, by means of the product marketed by the ROHM and HAAS Company under the name TRITON W. R.
On this hyperlipidemia the effects obtained by the administration of the active substances according to the invention, are observed.
The tests were carried out as follows:
the rats were fasted for 18 hours, then the TRITON W. R. was administered intravenously in 10% aqueous solution in the proportion of 200 mg/kg;
simultaneously 250 mg/kg of the product under test was administered orally;
6 hours and/or 24 hours later, blood assays were carried out conventionally.
to the total cholesterol, […]

[8] = read-out: Total cholesterol, % of decrease with respect to Triton control
[9] = read-out: Total lipids, % of decrease with respect to Triton control
[10] = read-out: Triglycerides, % of decrease with respect to Triton control

Compound | % decrease in animals afflicted with lesions (atherosclerosis lesions) | Score with respect to the reference clofibrate (animals afflicted with lesions) (atherosclerosis lesions) | AFFECTED ANIMALS % (atherosclerosis lesions) | TRIGLYCERIDES, % reduction with respect to the control diet [1] | CHOLESTEROL HDL, % with respect to the control diet [1] | CHOLESTEROL LDL, % reduction with respect to the control diet [1] | CHOLESTEROL HDL, Score with respect to clofibrate [1] | CHOLESTEROL LDL, Score with respect to clofibrate [1] | CHOLESTEROL T, Score with respect to clofibrate [1] | TRIGLYCERIDES, Score with respect to clofibrate [1] | CHOLESTEROL T, % reduction with respect to the control diet [1] | NUMBER OF ATHEROSCLEROTIC AREAS, percentage reduction with respect to the diet controls (aorta) | NUMBER OF ATHEROSCLEROTIC AREAS (aorta) [%] | HISTOLOGICAL QUOTATION, score with respect to clofibrate (aorta) | NUMBER OF ATHEROSCLEROTIC AREAS, score with respect to clofibrate (aorta) | HISTOLOGICAL QUOTATION, percentage reduction with respect to the diet controls (aorta) | LD50 [6] [mg/kg] | change in vivo at 250 mg/kg [7, 8] [%] | change in vivo at 250 mg/kg [7, 9] [%] | change in vivo at 250 mg/kg [7, 10] [%] | also measured
CCOC(=O)C(C)(C)Oc1ccc(Cl)cc1 [CLOFIBRATE, clofibrate, reference compound] | 18,18% | 1,00 | 81,82% | -24,14% | +104,17% | -55,37% | 1,00 | 1,00 | 1,00 | 1,00 | -48,75% | 54,93% | 72 | 1,00 | 1,00 | 62,83% |  |  |  |  | HISTOLOGICAL QUOTATION (aorta): 49%
O=C(O)CCCNS(=O)(=O)c1cccc(C(F)(F)F)c1 [Compound No. 1038, (trifluoromethyl-3 benzenesulfonylamino)-4 butyric acid] | 33,33% | 1,83 | 66,67% | -20,69% | +83,33% | -58,26% | 0,80 | 1,05 | 1,06 | 0,86 | -51,88% | 78,18% | 35 | 1,06 | 1,42 | 66,31% |  |  |  |  | toxicity (in words) [2]: presents no toxicity; therapeutic index [3]: very satisfactory; LD0 (mice; female): 5000 mg/kg; LD100 (mice; female): 9000 mg/kg; LD0 (mice; male): 4000 mg/kg; LD100 (mice; male): 9000 mg/kg; LD50 ([4]; female): 6600 mg/kg; LD50 ([4]; male): 6000 mg/kg; LD0 (rats; female): 5000 mg/kg; LD100 (rats; female): > 20000 mg/kg; LD0 (rats; male): 5000 mg/kg; LD100 (rats; male): 20000 mg/kg; LD50 ([5]; female): 15500 mg/kg; LD50 ([5]; male): 13000 mg/kg; HISTOLOGICAL QUOTATION (aorta): 44%
COc1cc([N+](=O)[O-])c(Cl)cc1S(=O)(=O)NCCCCCC(=O)O [compound 362] |  |  |  |  |  |  |  |  |  |  |  |  |  |  |  |  | 1760 | -10 | -39 | -88 | 
COc1cc([N+](=O)[O-])c(Cl)cc1S(=O)(=O)NCCCC(=O)O [compound 387] |  |  |  |  |  |  |  |  |  |  |  |  |  |  |  |  | 3070 |  | -39 | -90 | 
CCOC(=O)CCCCCCCCCCNS(=O)(=O)c1cc(Cl)c([N+](=O)[O-])cc1OC [compound 502] |  |  |  |  |  |  |  |  |  |  |  |  |  |  |  |  | 3070 | -16 | -45 | -32 | 
Nc1ccc(S(=O)(=O)NCCCCCC(=O)O)cc1 [compound 665] |  |  |  |  |  |  |  |  |  |  |  |  |  |  |  |  | > 6400 | -15 | -30 | -20 | 
O=C(O)CCCCCNS(=O)(=O)c1cccc([N+](=O)[O-])c1 [compound 675] |  |  |  |  |  |  |  |  |  |  |  |  |  |  |  |  | 930 | -19 | -45 | -27 | 
CCOC(=O)CCCCCCCCCCNS(=O)(=O)c1cccc([N+](=O)[O-])c1 [compound 676] |  |  |  |  |  |  |  |  |  |  |  |  |  |  |  |  | > 6400 | -10 | -43 | -24 | 
CCOC(=O)CCCNS(=O)(=O)c1cccc([N+](=O)[O-])c1 [compound 679] | 7,14% | 0,39 | 92,86% | 0% | +58,33% | -60,14% | 0,56 | 1,09 | 1,09 | 0 | -53,13% | 48,57% | 82 | 0,64 | 0,88 | 39,97% |  | -30 | -61 | -34 | HISTOLOGICAL QUOTATION (aorta): 79%
CCOC(=O)CCCCCCCCCCNS(=O)(=O)c1ccc(OC)cc1 [compound 729] |  |  |  |  |  |  |  |  |  |  |  |  |  |  |  |  | > 6400 |  |  | -17 | 
